# Measured values as given in ChEMBL document CHEMBL5230082, “Recent advances in steroid amino acid conjugates: Old scaffolds with new dimensions” (Eur J Med Chem, 2020).
# pIC50, pKi: −log10 of the molar value.
# Key:
# [1] = test system: SH-SY5Y; assay: Neuroprotective activity against H2O2-induced human SH-SY5Y cell injury by MTT assay relative to control; assay type: functional
# [2] = test system: Rattus norvegicus; assay: Antiarrhythmic activity in pentobarbital anesthetized rat model assessed as number of ventricular ectopics at 10 mg/kg, iv; assay type: functional
# [3] = test system: Rattus norvegicus; assay: Antiarrhythmic activity in pentobarbital anesthetized rat model assessed as ventricular fibrillation at 10 mg/kg, iv relative to control; assay type: functional
# [4] = test system: Rattus norvegicus; assay: Antiarrhythmic activity in pentobarbital anesthetized rat model assessed as death rate at 10 mg/kg, iv relative to control; assay type: functional
# [5] = Cytotoxicity against human A2780cis cells assessed as reduction in cell viability incubated for 72 hrs; assay type: functional, cell-based
# [6] = test system: Cladosporium cucumerinum; assay: Antifungal activity against Cladosporium cucumerinum assessed as zone of inhibition at 30 ug per disc; assay type: functional; settings: read-out: DIZ
# [7] = test system: Candida albicans; assay: Antifungal activity against Candida albicans assessed as zone of inhibition at 100 ug per disc; assay type: functional; settings: read-out: DIZ
# [8] = test system: Cladosporium cucumerinum; assay: Antifungal activity against Cladosporium cucumerinum assessed as zone of inhibition at 60 ug per disc; assay type: functional; settings: read-out: DIZ
# [9] = test system: HeLa; assay: Cytotoxicity against human HeLa cells assessed as reduction in cell viability; assay type: functional, cell-based
# [10] = molecular target: Ephrin type-A receptor 2/Ephrin-A1 (Homo sapiens, UniProt P20827+P29317); assay: Inhibition of EPhA2-ephrin-A1 (unknown origin) protein-protein interaction; assay type: protein assay
# [11] = molecular target: Human immunodeficiency virus type 1 protease (Human immunodeficiency virus 1, UniProt Q72874); assay: Inhibition of HIV-1 protease assessed as inhibition
# Sequence of Ephrin type-A receptor 2/Ephrin-A1 (P29317 whole entry): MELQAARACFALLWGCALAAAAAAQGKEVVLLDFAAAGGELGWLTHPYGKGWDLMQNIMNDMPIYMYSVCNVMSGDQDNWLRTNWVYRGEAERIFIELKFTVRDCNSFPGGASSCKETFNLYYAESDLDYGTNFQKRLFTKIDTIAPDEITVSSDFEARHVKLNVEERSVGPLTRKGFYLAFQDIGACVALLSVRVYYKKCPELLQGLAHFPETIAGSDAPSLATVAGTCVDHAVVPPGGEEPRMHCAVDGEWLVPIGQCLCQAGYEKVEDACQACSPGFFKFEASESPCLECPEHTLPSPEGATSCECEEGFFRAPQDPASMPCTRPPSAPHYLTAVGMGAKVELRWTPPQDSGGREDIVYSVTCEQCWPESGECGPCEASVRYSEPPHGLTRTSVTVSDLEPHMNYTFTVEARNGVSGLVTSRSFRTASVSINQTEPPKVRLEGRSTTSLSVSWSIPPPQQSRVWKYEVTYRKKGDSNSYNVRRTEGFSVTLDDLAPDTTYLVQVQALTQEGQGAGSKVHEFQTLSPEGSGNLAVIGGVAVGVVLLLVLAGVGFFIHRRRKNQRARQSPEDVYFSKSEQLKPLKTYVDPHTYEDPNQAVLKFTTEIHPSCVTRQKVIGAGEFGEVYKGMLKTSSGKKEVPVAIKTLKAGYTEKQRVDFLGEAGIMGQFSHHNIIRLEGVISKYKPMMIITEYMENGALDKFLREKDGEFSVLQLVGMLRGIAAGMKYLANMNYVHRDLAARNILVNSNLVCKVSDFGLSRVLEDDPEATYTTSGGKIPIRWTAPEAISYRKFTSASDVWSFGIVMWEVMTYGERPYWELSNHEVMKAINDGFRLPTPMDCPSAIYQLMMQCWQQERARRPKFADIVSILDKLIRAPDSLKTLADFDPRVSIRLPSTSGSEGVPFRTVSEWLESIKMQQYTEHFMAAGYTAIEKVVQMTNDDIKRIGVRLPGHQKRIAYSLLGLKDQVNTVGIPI
# Sequence of Ephrin type-A receptor 2/Ephrin-A1 (P20827 whole entry): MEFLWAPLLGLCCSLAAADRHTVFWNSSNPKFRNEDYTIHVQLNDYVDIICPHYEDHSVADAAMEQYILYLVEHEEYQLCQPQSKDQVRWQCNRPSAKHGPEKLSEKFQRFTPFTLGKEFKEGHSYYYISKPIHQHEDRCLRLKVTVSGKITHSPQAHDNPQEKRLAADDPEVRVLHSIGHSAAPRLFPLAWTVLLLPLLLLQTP
compound,measurement,setting,value
COC(=O)[C@H](Cc1ccccc1)NC(=O)[C@@H](C)CC[C@H]1O[C@H]2C[C@H]3[C@@H]4CC[C@@H]5C[C@@H](OC)CC[C@]5(C)[C@H]4CC[C@]3(C)[C@H]2[C@@H]1C,Activity,[1],102.2%
C[C@]12C[C@H](O)[C@@H](N)C[C@@H]1CC[C@@H]1[C@@H]2CC[C@]2(C)C(=O)CC[C@@H]12 [AMAFOLONE],Activity,[2],213
same,Activity,[3],13%
same,Activity,[4],0%
CC(C)CCC[C@@H](C)[C@H]1CC[C@H]2[C@@H]3CC=C4C[C@@H](OC(=O)N[C@H](Cc5ccc(O)cc5)C(=O)O)CC[C@]4(C)[C@H]3CC[C@]12C,pIC50,[5],4.30
C=C(C(=O)N[C@H](C(=O)O)c1ccc(OC)cc1)C(C)CC[C@@H](C)[C@H]1CCC2=C3[C@H](OC)C[C@H]4[C@H](C)[C@@H](OS(=O)(=O)O)CC[C@]4(C)[C@H]3CC[C@@]21C (stereo partly specified),zone of inhibition at 30 µg/disc,[6],10.1 mm
same,zone of inhibition at 100 µg/disc,[7],9.8 mm
same,zone of inhibition at 60 µg/disc,[8],8 mm
CC(C)CCC[C@@H](C)[C@H]1CC[C@H]2[C@@H]3CC=C4C[C@@H](OC(=O)N[C@H](Cc5ccc(OP(=O)(O)O)cc5)C(=O)O)CC[C@]4(C)[C@H]3CC[C@]12C,pIC50,[9],4.80
C[C@H](CCC(=O)O)[C@H]1CC[C@H]2[C@@H]3CC[C@@H]4CCCC[C@]4(C)[C@H]3CC[C@]12C [URSOCHOLANIC ACID],pKi,[10],5.29
C[C@H](CCC(=O)N[C@H](CC(=O)OCc1ccccc1)C(=O)O)[C@H]1CC[C@H]2[C@@H]3[C@H](O)C[C@@H]4C[C@H](O)CC[C@]4(C)[C@H]3C[C@H](O)[C@]12C,pIC50,[11],3.90
